Where two headings read alike, the source gives them in different places. Positions of bridges follow the written chain, without caps; N, C: chain ends. Non-standard residues stand in square brackets, D forms with d. Residues, ends and D or L forms follow the SMILES beside them. *: point of attachment. DOTA = O=C(O)CN1CCN(CC(=O)O)CCN(CC(=O)*)CCN(CC(=O)O)CC1; Lys(Me2) = CN(C)CCCC[C@H](N)C(=O)O; Pra = C#CC[C@H](N)C(=O)O; Abu = CC[C@H](N)C(=O)O
Legend:
Experiment in all cases: cell-based
[1] = molecular target: T1, hNav1.7 (Homo sapiens, UniProt Q15858); settings: Nav1.7 Use IC50
[2] = molecular target: T2, hNav1.5 (Homo sapiens, UniProt Q14524)
[3] = molecular target: T1, hNav1.7; type: cell-based
[4] = molecular target: T2, hNav1.5; settings: IonWorks Quattro; clamped to −110 mV, depolarized to −10 mV, 5 min after compound; n=2; read-out: IWQ Use Nav1.5
[5] = molecular target: hNav1.3 (Homo sapiens, UniProt Q9NY46); settings: IonWorks Quattro; clamped to −110 mV, depolarized to −10 mV, 5 min after compound; n=2; read-out: IWQ Use Nav1.3

T2 sequence (Q14524 whole entry, looked up): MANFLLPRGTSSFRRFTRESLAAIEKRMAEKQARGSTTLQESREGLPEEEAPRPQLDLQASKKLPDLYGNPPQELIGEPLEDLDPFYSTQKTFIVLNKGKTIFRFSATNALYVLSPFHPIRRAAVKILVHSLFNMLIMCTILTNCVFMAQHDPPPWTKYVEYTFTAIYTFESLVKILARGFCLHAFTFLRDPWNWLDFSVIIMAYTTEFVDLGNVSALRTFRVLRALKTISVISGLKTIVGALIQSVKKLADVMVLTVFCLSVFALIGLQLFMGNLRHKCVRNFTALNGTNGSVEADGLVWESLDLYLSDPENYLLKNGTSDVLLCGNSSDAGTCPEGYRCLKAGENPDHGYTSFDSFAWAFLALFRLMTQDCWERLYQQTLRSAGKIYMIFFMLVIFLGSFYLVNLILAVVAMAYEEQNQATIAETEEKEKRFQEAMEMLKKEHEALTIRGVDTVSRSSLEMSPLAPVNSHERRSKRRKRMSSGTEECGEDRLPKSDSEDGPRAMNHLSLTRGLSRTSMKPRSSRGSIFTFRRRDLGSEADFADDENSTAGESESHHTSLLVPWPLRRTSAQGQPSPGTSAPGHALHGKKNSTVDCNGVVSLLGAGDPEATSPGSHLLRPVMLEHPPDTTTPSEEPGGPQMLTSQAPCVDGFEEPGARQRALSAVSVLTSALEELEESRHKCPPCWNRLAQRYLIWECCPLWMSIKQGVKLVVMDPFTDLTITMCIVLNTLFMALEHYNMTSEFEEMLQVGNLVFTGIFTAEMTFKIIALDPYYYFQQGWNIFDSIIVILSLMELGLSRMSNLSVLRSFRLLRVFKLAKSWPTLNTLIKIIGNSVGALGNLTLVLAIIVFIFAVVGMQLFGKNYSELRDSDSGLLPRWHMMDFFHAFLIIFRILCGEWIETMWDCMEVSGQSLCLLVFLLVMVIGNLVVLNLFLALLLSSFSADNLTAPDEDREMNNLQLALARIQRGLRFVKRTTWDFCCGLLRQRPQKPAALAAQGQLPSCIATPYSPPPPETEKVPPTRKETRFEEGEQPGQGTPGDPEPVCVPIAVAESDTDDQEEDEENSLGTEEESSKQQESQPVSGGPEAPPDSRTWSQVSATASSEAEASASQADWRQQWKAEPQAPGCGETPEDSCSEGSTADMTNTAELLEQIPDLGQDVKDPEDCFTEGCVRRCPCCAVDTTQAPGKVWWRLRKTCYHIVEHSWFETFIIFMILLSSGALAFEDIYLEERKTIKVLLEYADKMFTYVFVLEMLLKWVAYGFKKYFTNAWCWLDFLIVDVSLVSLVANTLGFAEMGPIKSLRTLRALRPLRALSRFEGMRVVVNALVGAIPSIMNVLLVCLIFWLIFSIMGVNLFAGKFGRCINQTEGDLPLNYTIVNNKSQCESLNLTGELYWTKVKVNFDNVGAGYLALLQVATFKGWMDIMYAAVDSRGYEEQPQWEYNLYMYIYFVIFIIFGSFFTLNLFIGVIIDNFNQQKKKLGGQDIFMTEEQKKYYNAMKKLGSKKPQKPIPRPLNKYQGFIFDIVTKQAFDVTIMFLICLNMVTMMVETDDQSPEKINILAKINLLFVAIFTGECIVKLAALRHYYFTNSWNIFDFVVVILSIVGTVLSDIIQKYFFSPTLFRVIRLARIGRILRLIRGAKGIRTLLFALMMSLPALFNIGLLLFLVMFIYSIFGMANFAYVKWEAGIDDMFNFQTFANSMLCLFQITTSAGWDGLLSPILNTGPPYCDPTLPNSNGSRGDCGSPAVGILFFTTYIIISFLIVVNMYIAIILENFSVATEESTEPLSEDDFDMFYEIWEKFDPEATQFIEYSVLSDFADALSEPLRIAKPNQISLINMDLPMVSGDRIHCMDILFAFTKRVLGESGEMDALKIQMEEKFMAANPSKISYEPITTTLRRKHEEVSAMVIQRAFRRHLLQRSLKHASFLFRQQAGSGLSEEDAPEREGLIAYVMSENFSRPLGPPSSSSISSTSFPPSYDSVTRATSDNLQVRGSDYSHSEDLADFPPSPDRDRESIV
T1 sequence (Q15858 whole entry, looked up): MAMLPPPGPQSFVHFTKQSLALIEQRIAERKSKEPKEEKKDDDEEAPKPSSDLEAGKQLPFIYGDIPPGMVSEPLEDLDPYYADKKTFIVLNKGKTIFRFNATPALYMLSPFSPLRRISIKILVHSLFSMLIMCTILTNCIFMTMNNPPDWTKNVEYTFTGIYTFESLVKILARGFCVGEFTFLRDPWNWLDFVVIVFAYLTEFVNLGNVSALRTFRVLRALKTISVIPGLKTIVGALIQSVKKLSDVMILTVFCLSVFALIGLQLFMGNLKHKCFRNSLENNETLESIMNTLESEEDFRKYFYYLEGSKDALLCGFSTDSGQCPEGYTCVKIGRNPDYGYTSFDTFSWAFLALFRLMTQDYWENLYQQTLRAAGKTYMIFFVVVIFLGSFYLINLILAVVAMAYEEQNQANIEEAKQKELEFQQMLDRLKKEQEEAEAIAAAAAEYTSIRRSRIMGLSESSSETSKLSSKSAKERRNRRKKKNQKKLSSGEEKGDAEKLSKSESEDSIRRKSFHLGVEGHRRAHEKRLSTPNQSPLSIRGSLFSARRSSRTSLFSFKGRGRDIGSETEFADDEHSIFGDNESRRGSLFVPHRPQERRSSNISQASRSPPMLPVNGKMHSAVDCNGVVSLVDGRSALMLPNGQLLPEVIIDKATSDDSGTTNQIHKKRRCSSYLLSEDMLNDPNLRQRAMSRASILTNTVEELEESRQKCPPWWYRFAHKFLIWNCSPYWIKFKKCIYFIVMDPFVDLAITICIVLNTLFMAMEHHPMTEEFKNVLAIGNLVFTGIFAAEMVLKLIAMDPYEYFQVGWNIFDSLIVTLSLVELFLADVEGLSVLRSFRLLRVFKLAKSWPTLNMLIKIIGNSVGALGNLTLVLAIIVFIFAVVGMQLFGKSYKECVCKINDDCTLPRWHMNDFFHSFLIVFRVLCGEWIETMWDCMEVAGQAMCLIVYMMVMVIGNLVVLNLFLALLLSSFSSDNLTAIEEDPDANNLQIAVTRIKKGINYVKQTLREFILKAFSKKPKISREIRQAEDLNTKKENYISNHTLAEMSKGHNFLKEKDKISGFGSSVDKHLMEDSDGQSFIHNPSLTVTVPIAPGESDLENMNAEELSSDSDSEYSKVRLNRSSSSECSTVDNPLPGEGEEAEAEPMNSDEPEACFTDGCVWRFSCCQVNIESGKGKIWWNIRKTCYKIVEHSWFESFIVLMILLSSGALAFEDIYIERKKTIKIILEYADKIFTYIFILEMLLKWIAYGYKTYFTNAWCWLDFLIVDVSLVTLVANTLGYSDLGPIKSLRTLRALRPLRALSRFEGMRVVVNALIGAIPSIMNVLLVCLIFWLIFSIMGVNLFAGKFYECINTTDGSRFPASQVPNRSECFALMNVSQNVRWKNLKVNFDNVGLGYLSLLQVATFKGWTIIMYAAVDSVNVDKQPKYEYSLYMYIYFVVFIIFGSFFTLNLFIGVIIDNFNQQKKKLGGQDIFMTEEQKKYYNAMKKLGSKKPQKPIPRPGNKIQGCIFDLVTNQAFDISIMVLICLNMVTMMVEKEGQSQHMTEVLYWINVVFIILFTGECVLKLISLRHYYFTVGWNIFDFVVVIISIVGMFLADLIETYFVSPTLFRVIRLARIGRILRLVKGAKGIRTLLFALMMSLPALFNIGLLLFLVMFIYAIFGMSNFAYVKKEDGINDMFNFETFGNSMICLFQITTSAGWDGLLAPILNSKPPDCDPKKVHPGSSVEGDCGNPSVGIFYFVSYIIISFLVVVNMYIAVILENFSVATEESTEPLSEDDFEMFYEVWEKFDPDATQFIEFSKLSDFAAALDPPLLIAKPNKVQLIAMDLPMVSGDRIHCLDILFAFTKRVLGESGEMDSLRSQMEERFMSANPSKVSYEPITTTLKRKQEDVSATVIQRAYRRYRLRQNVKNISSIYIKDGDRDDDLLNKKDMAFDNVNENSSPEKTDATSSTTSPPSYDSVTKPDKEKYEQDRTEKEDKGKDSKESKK

SMILES	IC50 [1] [nM]	IC50 [2] [nM]	further results
CC[C@H](C)[C@@H]1NC(=O)[C@@H]2CSSC[C@@H]3NC(=O)[C@H](C(C)C)NC(=O)[C@H](CC(C)C)NC(=O)[C@H](CC(N)=O)NC(=O)[C@@H]4CCCN4C(=O)[C@H](CCCNC(=N)N)NC(=O)[C@H](CSSC[C@H](NC(=O)[C@@H](N)CC(=O)O)C(=O)N[C@@H](CC(C)C)C(=O)NCC(=O)N[C@@H](C)C(=O)N[C@@H](Cc4ccccc4)C(=O)N[C@@H](CCCNC(=N)N)C(=O)N[C@@H](CCCCN)C(=O)N2)NC(=O)[C@H](CSSC[C@@H](C(=O)N[C@@H](CCCCN)C(=O)N[C@@H](Cc2ccc(O)cc2)C(=O)N[C@H](C(=O)N[C@@H](Cc2ccccc2)C(N)=O)C(C)C)NC(=O)[C@H](Cc2c[nH]c4ccccc24)NC(=O)[C@H](CCCNC(=N)N)NC(=O)[C@H](Cc2c[nH]cn2)NC(=O)[C@H](CC(C)C)NC(=O)[C@H](CCCNC(=N)N)NC(=O)[C@H](CO)NC3=O)NC(=O)[C@H](CCCCN)NC(=O)[C@H](CC(=O)O)NC(=O)[C@H](Cc2cn(CCOCCOCCOCCOCCOCCOCCOCCOCCOCCOCCOCCNC(=O)CSCCO)nn2)NC(=O)[C@H](CC(=O)O)NC(=O)[C@@H]2CCCN2C1=O	35	> 10000	
CC[C@@H]1NC(=O)[C@H](CC(=O)O)NC(=O)[C@@H]2CCCN2C(=O)[C@H](CCC(=O)O)NC(=O)[C@@H]2CSSC[C@@H]3NC(=O)[C@H](C(C)C)NC(=O)[C@H](CC(C)C)NC(=O)[C@H](CC(N)=O)NC(=O)[C@@H]4CCCN4C(=O)[C@H](CCCNC(=N)N)NC(=O)[C@H](CSSC[C@H](NC(=O)[C@@H](N)CC(=O)O)C(=O)N[C@@H](CC(C)C)C(=O)NCC(=O)N[C@@H](C)C(=O)N[C@@H](Cc4ccccc4)C(=O)N[C@@H](CCCNC(=N)N)C(=O)N[C@@H](CCCCN)C(=O)N2)NC(=O)[C@H](CSSC[C@@H](C(=O)N[C@@H](CCCCN)C(=O)N[C@@H](Cc2ccc(O)cc2)C(=O)N[C@H](C(=O)N[C@@H](Cc2ccccc2)C(N)=O)C(C)C)NC(=O)[C@H](Cc2c[nH]c4ccccc24)NC(=O)[C@H](CCCNC(=N)N)NC(=O)[C@H](Cc2c[nH]cn2)NC(=O)[C@H](CC(C)C)NC(=O)[C@H](CCCNC(=N)N)NC(=O)[C@H](CO)NC3=O)NC(=O)[C@H](CCCCN)NC(=O)[C@H](CC(=O)O)NC1=O (H-DCLGAFRKCEPD[Abu]DKCCRPNLVCSRLHRWCKYVF-NH2; disulfide 2-17, 9-23, 16-30)	3.5	> 10000	
C#CC[C@@H]1NC(=O)[C@H](CC(=O)O)NC(=O)[C@@H]2CCCN2C(=O)[C@H](CCC(=O)O)NC(=O)[C@@H]2CSSC[C@@H]3NC(=O)[C@H](C(C)C)NC(=O)[C@H](CC(C)C)NC(=O)[C@H](CC(N)=O)NC(=O)[C@@H]4CCCN4C(=O)[C@H](CCCNC(=N)N)NC(=O)[C@H](CSSC[C@H](NC(=O)[C@@H](N)CC(=O)O)C(=O)N[C@@H](CC(C)C)C(=O)NCC(=O)N[C@@H](C)C(=O)N[C@@H](Cc4ccccc4)C(=O)N[C@@H](CCCNC(=N)N)C(=O)N[C@@H](CCCCN)C(=O)N2)NC(=O)[C@H](CSSC[C@@H](C(=O)N[C@@H](CCCCN)C(=O)N[C@@H](Cc2ccc(O)cc2)C(=O)N[C@H](C(=O)N[C@@H](Cc2ccccc2)C(N)=O)C(C)C)NC(=O)[C@H](Cc2c[nH]c4ccccc24)NC(=O)[C@H](CCCNC(=N)N)NC(=O)[C@H](Cc2c[nH]cn2)NC(=O)[C@H](CC(C)C)NC(=O)[C@H](CCCNC(=N)N)NC(=O)[C@H](CO)NC3=O)NC(=O)[C@H](CCCCN)NC(=O)[C@H](CC(=O)O)NC1=O (H-DCLGAFRKCEPD[Pra]DKCCRPNLVCSRLHRWCKYVF-NH2; disulfide 2-17, 9-23, 16-30)	12	15300	
CC[C@H](C)[C@@H]1NC(=O)[C@@H]2CSSC[C@@H]3NC(=O)[C@H](C(C)C)NC(=O)[C@H](CC(C)C)NC(=O)[C@H](CC(N)=O)NC(=O)[C@@H]4CCCN4C(=O)[C@H](CCCNC(=N)N)NC(=O)[C@H](CSSC[C@H](NC(=O)[C@@H](N)CC(=O)O)C(=O)N[C@@H](CC(C)C)C(=O)NCC(=O)N[C@@H](C)C(=O)N[C@@H](Cc4ccccc4)C(=O)N[C@@H](CCCNC(=N)N)C(=O)N[C@@H](CCCCN)C(=O)N2)NC(=O)[C@H](CSSC[C@@H](C(=O)N[C@@H](CCCCN)C(=O)N[C@@H](Cc2ccc(O)cc2)C(=O)N[C@H](C(=O)N[C@@H](Cc2ccccc2)C(N)=O)C(C)C)NC(=O)[C@H](Cc2c[nH]c4ccccc24)NC(=O)[C@H](CCCNC(=N)N)NC(=O)[C@H](Cc2c[nH]cn2)NC(=O)[C@H](CC(C)C)NC(=O)[C@H](CCCNC(=N)N)NC(=O)[C@H](CO)NC3=O)NC(=O)[C@H](CCCCN)NC(=O)[C@H](CC(=O)O)NC(=O)[C@H](CCCCNC(=O)CN2CCN(CC(=O)O)CCN(CC(=O)O)CCN(CC(=O)O)CC2)NC(=O)[C@H](CC(=O)O)NC(=O)[C@@H]2CCCN2C1=O (H-DCLGAFRKCIPDK(DOTA)DKCCRPNLVCSRLHRWCKYVF-NH2; disulfide 2-17, 9-23, 16-30)	27.5	> 10000	
CC[C@H](C)[C@@H]1NC(=O)[C@@H]2CSSC[C@@H]3NC(=O)[C@H](C(C)C)NC(=O)[C@H](CC(C)C)NC(=O)[C@H](CC(N)=O)NC(=O)[C@@H]4CCCN4C(=O)[C@H](CCCNC(=N)N)NC(=O)[C@H](CSSC[C@H](NC(=O)[C@@H](N)CC(=O)O)C(=O)N[C@@H](CC(C)C)C(=O)N[C@@H](CCCCN)C(=O)N[C@@H](Cc4ccccc4)C(=O)N[C@@H](CCSC)C(=O)N[C@@H](CCCNC(=N)N)C(=O)N[C@@H](CCCCN)C(=O)N2)NC(=O)[C@H](CSSC[C@@H](C(=O)N[C@@H](CCCCN)C(=O)N[C@@H](Cc2ccc(O)cc2)C(=O)N[C@H](C(=O)N[C@@H](Cc2ccccc2)C(N)=O)C(C)C)NC(=O)[C@H](Cc2c[nH]c4ccccc24)NC(=O)[C@H](CCCCN)NC(=O)[C@H](Cc2cnc[nH]2)NC(=O)[C@H]([C@@H](C)O)NC(=O)[C@H](CCCNC(=N)N)NC(=O)[C@H](CO)NC3=O)NC(=O)[C@H](CCCCN)NC(=O)[C@H](CC(=O)O)NC(=O)[C@H](CC(N)=O)NC(=O)[C@H](CC(=O)O)NC(=O)[C@@H]2CCCN2C1=O [SEQ ID NO: 39] (H-DCLKFMRKCIPDNDKCCRPNLVCSRTHKWCKYVF-NH2; disulfide 2-17, 9-23, 16-30)		10600	IC50 [3]: 200 nM; IC50 [4]: 9820 nM; IC50 [5]: 180 nM
CC[C@H](C)[C@@H]1NC(=O)[C@@H]2CSSC[C@@H]3NC(=O)[C@H](C(C)C)NC(=O)[C@H](CC(C)C)NC(=O)[C@H](CC(N)=O)NC(=O)[C@@H]4CCCN4C(=O)[C@H](CCCNC(=N)N)NC(=O)[C@H](CSSC[C@H](NC(=O)[C@@H](N)CC(=O)O)C(=O)N[C@@H](CC(C)C)C(=O)N[C@@H](CCCNC(=N)N)C(=O)N[C@@H](Cc4ccccc4)C(=O)N[C@@H](CCSC)C(=O)N[C@@H](CCCNC(=N)N)C(=O)N[C@@H](CCCCN)C(=O)N2)NC(=O)[C@H](CSSC[C@@H](C(=O)N[C@@H](CCCCN)C(=O)N[C@@H](Cc2ccc(O)cc2)C(=O)N[C@H](C(=O)N[C@@H](Cc2ccccc2)C(N)=O)C(C)C)NC(=O)[C@H](Cc2c[nH]c4ccccc24)NC(=O)[C@H](CCCCN)NC(=O)[C@H](Cc2cnc[nH]2)NC(=O)[C@H]([C@@H](C)O)NC(=O)[C@H](CCCNC(=N)N)NC(=O)[C@H](CO)NC3=O)NC(=O)[C@H](CCCCN)NC(=O)[C@H](CC(=O)O)NC(=O)[C@H](CC(N)=O)NC(=O)[C@H](CC(=O)O)NC(=O)[C@@H]2CCCN2C1=O [SEQ ID NO: 63] (H-DCLRFMRKCIPDNDKCCRPNLVCSRTHKWCKYVF-NH2; disulfide 2-17, 9-23, 16-30)		5000	IC50 [3]: 210 nM; IC50 [4]: 20100 nM; IC50 [5]: 230 nM
CC[C@H](C)[C@@H]1NC(=O)[C@@H]2CSSC[C@@H]3NC(=O)[C@H](C(C)C)NC(=O)[C@H](CC(C)C)NC(=O)[C@H](CC(N)=O)NC(=O)[C@@H]4CCCN4C(=O)[C@H](CCCNC(=N)N)NC(=O)[C@H](CSSC[C@H](N)C(=O)N[C@@H](CC(C)C)C(=O)NCC(=O)N[C@@H](Cc4ccccc4)C(=O)N[C@@H](CCSC)C(=O)N[C@@H](CCCNC(=N)N)C(=O)N[C@@H](CCCCN)C(=O)N2)NC(=O)[C@H](CSSC[C@@H](C(=O)N[C@@H](CCCCN)C(=O)N[C@@H](Cc2ccc(O)cc2)C(=O)N[C@H](C(=O)N[C@@H](Cc2ccccc2)C(N)=O)C(C)C)NC(=O)[C@H](Cc2c[nH]c4ccccc24)NC(=O)[C@H](CCCCN)NC(=O)[C@H](Cc2c[nH]cn2)NC(=O)[C@H]([C@@H](C)O)NC(=O)[C@H](CCCNC(=N)N)NC(=O)[C@H](CO)NC3=O)NC(=O)[C@H](CCCCN)NC(=O)[C@H](CC(=O)O)NC(=O)[C@H](CC(N)=O)NC(=O)[C@H](CC(=O)O)NC(=O)[C@@H]2CCCN2C1=O [SEQ ID NO: 108] (H-CLGFMRKCIPDNDKCCRPNLVCSRTHKWCKYVF-NH2; disulfide 1-16, 8-22, 15-29)			IC50 ([3]; IonWorks Quattro, clamped to −110 mV, depolarized to −10 mV, 5 min after compound, n=2, read-out: IWQ Use Nav1.7): 70 nM; IC50 ([2]; read-out: Nav1.5 Use IC50): 4940 nM
CC[C@H](C)[C@@H]1NC(=O)[C@@H]2CSSC[C@@H]3NC(=O)[C@H](C(C)C)NC(=O)[C@H](CC(C)C)NC(=O)[C@H](CC(N)=O)NC(=O)[C@@H]4CCCN4C(=O)[C@H](CCCCN(C)C)NC(=O)[C@H](CSSC[C@H](NC(=O)[C@@H](N)CC(=O)O)C(=O)N[C@@H](CC(C)C)C(=O)NCC(=O)N[C@@H](Cc4ccccc4)C(=O)N[C@@H](CCSC)C(=O)N[C@@H](CCCNC(=N)N)C(=O)N[C@@H](CCCCN)C(=O)N2)NC(=O)[C@H](CSSC[C@@H](C(=O)N[C@@H](CCCCN)C(=O)N[C@@H](Cc2ccc(O)cc2)C(=O)N[C@H](C(=O)N[C@@H](Cc2ccccc2)C(N)=O)C(C)C)NC(=O)[C@H](Cc2c[nH]c4ccccc24)NC(=O)[C@H](CCCCN)NC(=O)[C@H](Cc2cnc[nH]2)NC(=O)[C@H]([C@@H](C)O)NC(=O)[C@H](CCCNC(=N)N)NC(=O)[C@H](CO)NC3=O)NC(=O)[C@H](CCCCN)NC(=O)[C@H](CC(=O)O)NC(=O)[C@H](CC(N)=O)NC(=O)[C@H](CC(=O)O)NC(=O)[C@@H]2CCCN2C1=O [[K(Me2)18]GpTx-1(1-34)] (H-DCLGFMRKCIPDNDKCC[Lys(Me2)]PNLVCSRTHKWCKYVF-NH2; disulfide 2-17, 9-23, 16-30)		10000	

Source: US9340590B2 (priority 2011, dated 2016)
